Laboratory results: patent US6106744A, “Photochromic pyrano-fused naphthopyrans” (PPG Industries Ohio, Inc., priority 1997, dated 2000)

Tests used:
[1] = lambda max (Vis) of activated form in test square polymerizates (Varian Cary 3 UV-Visible spectrophotometer); format: physicochemical; conditions: activated (colored) form in test square; BPA 2EO DMA / poly(ethylene glycol) 600 dimethacrylate polymer
Description: (§1) Testing was done with the photochromic compounds prepared in Examples 1, 2, 3 and 4 in the following manner. A quantity of each photochromic compound calculated to yield a 1.5×10^-3 molal solution was added to a flask containing 50 grams of a monomer blend of 4 parts ethoxylated bisphenol A dimethacrylate (BPA 2EO DMA), 1 part poly(ethylene glycol) 600 dimethacrylate, and 0.033 weight percent 2,2'-azobis(2-methyl propionitrile) (AIBN). Each photochromic compound was dissolved into the monomer blend by stirring and gentle heating. After a clear solution was obtained, it was poured into a flat sheet mold having the interior dimensions of 2.2 mm×6 inches (15.24 cm)×6 inches (15.24 cm). The mold was sealed and placed in a horizontal air flow, programmable oven programmed to increase the temperature from 40° C. to 95° C. over a 5 hour interval, hold the temperature at 95° C. for 3 hours, lower it to 60° C. over a 2 hour interval and then hold at 60° C. for 16 hours. After the mold was opened, the polymer sheet was cut using a diamond blade saw into 2 inch (5.1 centimeters) test squares.
The Δ OD/Min, which represents the sensitivity of the photochromic compound's response to UV light, was measured over the first five (5) seconds of UV exposure, then expressed on a per minute basis. The saturation optical density (Δ OD@ Saturation) was taken under identical conditions as the Δ OD/Min, except UV exposure was continued for 15 minutes. The lambda max (Vis) is the wavelength in nanometers (nm) in the visible spectrum at which the maximum absorption of the activated (colored) form of the photochromic compound in a test square occurs. The lambda max (Vis) wavelength was determined by testing the photochromic test square polymerizates of Part A in a Varian Cary 3 UV-Visible spectrophotometer. The Bleach Rate (T 1/2) is the time interval in seconds for the absorbance of the activated form of the photochromic compound in the test squares to reach one half the highest absorbance at room temperature (72° F., 22.2° C.) after removal of the source of activating light.

[2] = Photochromic response of test squares on an optical bench; format: physicochemical; conditions: for Bleach Rate T 1/2: time to one half the highest absorbance at room temperature (72° F., 22.2° C.) after removal of activating light; for Sensitivity ΔOD/min: first five (5) seconds of UV exposure, expressed per minute, 72° F. (22.2° C.), 0.15 to 0.20 mW/cm^2
Description: as §1
The photochromic test squares prepared in Part A were tested for photochromic response on an optical bench. Prior to testing on the optical bench, the photochromic test squares were exposed to 365 nanometer ultraviolet light for about 15 minutes to activate the photochromic compounds and then placed in a 76° C. oven for about 15 minutes to bleach or inactivate the photochromic compounds. The test squares were then cooled to room temperature, exposed to fluorescent room lighting for at least 2 hours and then kept covered for at least 2 hours prior to testing on an optical bench maintained at 72° F. (22.2° C.). The bench was fitted with a 150 watt Xenon arc lamp, a remote controlled shutter, a copper sulfate bath acting as a heat sink for the arc lamp, a Schott WG-320 nm cut-off filter which removes short wavelength radiation; neutral density filter(s) and a sample holder in which the square to be tested was inserted. The power output of the optical bench, i.e., the dosage of light that the sample lens would be exposed to, was calibrated with a photochromic test square used as a reference standard. […] The UV-A detector was placed into the sample holder and the light output was measured. […]
A monitoring, collimated beam of light from a tungsten lamp was passed through the square at a small angle (approximately 30° ) normal to the square. After passing through the square, the light from the tungsten lamp was directed to a detector through Spectral Energy Corp. GM-200 monochromator set at the previously determined visible lambda max of the photochromic compound being measured. […]
Change in optical density (ΔOD) was determined by inserting a test square in the bleached state into the sample holder, adjusting the transmittance scale to 100% opening the shutter from the Xenon lamp to provide ultraviolet radiation to change the test square from the bleached state to an activated (i.e., darkened) state, measuring the transmittance in the activated state, and calculating the change in optical density according to the formula: ΔOD=log (100/%Ta), where %Ta is the percent transmittance in the activated state and the logarithm is to the base 10.
The Δ OD/Min, which represents the sensitivity of the photochromic compound's response to UV light, was measured over the first five (5) seconds of UV exposure, then expressed on a per minute basis. […]

| lambda max (Vis) [1] [nanometers] | Bleach Rate T 1/2 [2] [min] | Sensitivity ΔOD/min [2] | SMILES |
| --- | --- | --- | --- |
| 492 | 0.833 | – | Cc1ccc2c3c(c4c(=O)oc(C(c5ccccc5)c5ccccc5)cc4c2c1)C=CC(c1ccccc1)(c1ccccc1)O3 [Example 1, 2,2-diphenyl-7-diphenylmethyl-10-methyl-2,5-dihydro-5-oxo-pyrano[3',4':3,4]naphtho[1,2-b]pyran] |
| 569 | 3.03 | 0.33 ΔOD/min | COc1ccc(C2(c3ccc(OC)cc3)C=Cc3c4c(c5cc(C)ccc5c3O2)C=C(C(c2ccccc2)c2ccccc2)OC4)cc1 [Example 3, 2,2-di(4-methoxyphenyl)-7-diphenylmethyl-10-methyl-2,5-dihydro-pyrano[3',4':3,4]naphtho[1,2-b]pyran] |
| 592 | 4.68 | 0.39 ΔOD/min | Cc1ccc2c3c(c4c(c2c1)C=C(C(c1ccccc1)c1ccccc1)OC4)C=CC(c1ccccc1)(c1ccc(N2CCOCC2)cc1)O3 (centres unmarked) [Example 4, 2-phenyl-2-(4-morpholinophenyl)-7-diphenylmethyl-10-methyl-2,5-dihydro-pyrano[3',4':3,4]naphtho[1,2-b]pyran] |
